Reference: ChEMBL document CHEMBL1201862, “PubChem BioAssay data set” (2004)
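Exposure lasted 48 hours, with cells grown in 96-well plates and compounds tested at five concentrations. GI50 = concentration required for 50% inhibition of growth.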 The source made the active and inactive calls. No stated cut-off is given here; in the data, active = GI50 up to about 1.1 µM and inactive = higher.

Legend:
Experiment in all cases: DTP human tumour cell line panel, 48 h
[1] = test system: 786-0
[2] = test system: CCRF-CEM
[3] = test system: DU-145
[4] = test system: HCT-116
[5] = test system: HT-29
[6] = test system: Hs-578T
[7] = test system: IGROV-1
[8] = test system: KM12
[9] = test system: M14
[10] = test system: MCF7
[11] = test system: MDA-MB-231
[12] = test system: SF-268
[13] = test system: SF-295
[14] = test system: SF-539
[15] = test system: SK-MEL-2
[16] = test system: SNB-19
[17] = test system: UACC-62
[18] = test system: Malme-3M
[19] = test system: OVCAR-3
[20] = test system: SK-MEL-28

Measured: GI50

CCCn1c(=O)c2ccccc2[n+]2c(-c3ccc([N+](=O)[O-])cc3)csc12
inactive: [1] 26.2 µM | [2] 27.2 µM | [3] 38.9 µM | [4] 23.8 µM | [5] 25 µM | [6] 23.3 µM | [7] 20.3 µM | [8] 18.8 µM | [9] 35.6 µM | [10] 29.9 µM | [11] 33.7 µM | [12] 41.8 µM | [13] 30.8 µM | [14] 17.2 µM | [15] 35.7 µM | [16] 25.7 µM | [17] 32.7 µM

Nc1ccc(S(=O)(=O)C23CC4CC(CC(C4)C2)C3)cc1
inactive: [1] > 100 µM | [2] 49.8 µM | [3] 78 µM | [4] > 100 µM | [5] > 100 µM | [6] > 100 µM | [7] > 100 µM | [8] > 100 µM | [9] > 100 µM | [10] > 100 µM | [11] > 100 µM | [18] > 100 µM | [19] 77.8 µM | [12] > 100 µM | [13] > 100 µM | [14] > 100 µM | [20] > 100 µM | [15] > 100 µM | [16] > 100 µM | [17] > 100 µM

COC(=O)/C=C\c1ccc2c(c1)CC1(C2)Cc2ccc(/C=C/C(=O)OC)cc2C1 (stereo not drawn)
inactive: [1] 19.6 µM | [2] > 31.6 µM | [3] > 100 µM | [4] 24.4 µM | [5] > 31.6 µM | [6] > 31.6 µM | [7] > 31.6 µM | [8] > 31.6 µM | [9] > 31.6 µM | [10] 21.2 µM | [11] 17.2 µM | [18] 29.4 µM | [19] > 31.6 µM | [12] > 100 µM | [13] 21.5 µM | [14] 30 µM | [20] > 100 µM | [15] > 10 µM | [16] 27 µM | [17] > 31.6 µM

N#Cc1nn(C2OC(COC(=O)c3ccccc3)C(OC(=O)c3ccccc3)C2OC(=O)c2ccccc2)c2nc[nH]c(=O)c12 (stereo not drawn)
inactive: [1] 35.9 µM | [2] 18.5 µM | [3] 42.7 µM | [4] 28.8 µM | [5] 36.2 µM | [6] 80.9 µM | [7] 42.7 µM | [9] 46.1 µM | [10] 93.5 µM | [11] 58.3 µM | [18] 36.1 µM | [19] 46 µM | [12] 43.1 µM | [13] 46.5 µM | [14] 68.4 µM | [20] 44.1 µM | [15] 85.5 µM | [16] 72.8 µM | [17] > 100 µM

C=CCCCCCCCCCOC1C=CC(O)C(CO)O1 (stereo not drawn)
inactive: [1] 44.5 µM | [3] 95.3 µM | [4] 46.3 µM | [5] 22.6 µM | [6] 46 µM | [7] 16.6 µM | [8] 27.2 µM | [9] 18.6 µM | [10] 41.4 µM | [11] 75.5 µM | [18] 28.1 µM | [19] 38 µM | [12] 54.8 µM | [13] 66.2 µM | [14] 95.7 µM | [20] 41.6 µM | [15] 35.7 µM | [16] 54.8 µM | [17] 27.8 µM

Cc1nc2sc3cccc(Cl)c3n2c(=O)c1/N=N/c1ccc(Cl)cc1
inactive: [1] > 100 µM | [2] > 100 µM | [3] > 100 µM | [4] 88.1 µM | [5] 67.1 µM | [6] 45.9 µM | [7] 63.8 µM | [8] > 100 µM | [9] > 100 µM | [10] 87.5 µM | [11] 71 µM | [18] 70.6 µM | [19] 46.7 µM | [12] 58.9 µM | [13] 53.1 µM | [14] > 100 µM | [20] > 100 µM | [15] > 100 µM | [16] > 100 µM

CC1(C)[C@@H](Cn2cnc3c(O)nc(N)nc32)CC[C@@]1(C)CO
inactive: [1] > 100 µM | [2] > 100 µM | [3] > 100 µM | [4] > 100 µM | [6] > 100 µM | [8] > 100 µM | [9] > 100 µM | [10] > 100 µM | [11] > 100 µM | [19] > 100 µM | [12] > 100 µM | [13] > 100 µM | [14] > 100 µM | [20] > 100 µM | [15] > 100 µM | [16] > 100 µM | [17] 60.5 µM

CC(CC(=O)O)(CC(=O)O)C(=O)O
inactive: [1] > 100 µM | [3] > 100 µM | [4] > 100 µM | [5] > 100 µM | [6] > 100 µM | [7] > 100 µM | [8] > 100 µM | [9] > 100 µM | [10] > 100 µM | [11] > 100 µM | [18] > 100 µM | [19] > 100 µM | [12] > 100 µM | [13] > 100 µM | [14] > 100 µM | [20] > 100 µM | [15] > 100 µM | [16] > 100 µM | [17] > 100 µM

CO/C=C(/C(=O)OC)c1ccccc1Oc1c(F)c(F)c(F)c(F)c1F
inactive: [1] 33.7 µM | [2] 30.1 µM | [3] 33 µM | [4] 22.9 µM | [5] 32.4 µM | [6] 25.8 µM | [7] 29.3 µM | [8] 24 µM | [9] 35.3 µM | [10] 38.2 µM | [11] 29.5 µM | [19] 21.3 µM | [12] 50.1 µM | [13] 54.5 µM | [14] 56 µM | [20] 55.7 µM | [15] 24.2 µM | [16] 57.4 µM | [17] 21.9 µM

O=C1COCCN1C(=O)c1ccccc1Cl
inactive: [1] > 100 µM | [2] > 100 µM | [3] > 100 µM | [4] > 100 µM | [5] > 100 µM | [6] > 100 µM | [7] > 100 µM | [8] > 100 µM | [9] > 100 µM | [10] 34 µM | [11] > 100 µM | [18] > 100 µM | [19] > 100 µM | [12] > 100 µM | [13] > 100 µM | [14] > 100 µM | [20] > 100 µM | [16] > 100 µM | [17] > 100 µM
